Entries after “also recorded” stand apart in the source; their conditions may differ. Like-named read-outs stand apart in the source and are kept apart here.
Assays:
PG formation = details: cited from earlier work
[1] = cited from earlier work
NZB/W mouse = assay: NZB/W mouse, animal model for Sjogren's syndrome; assay type: in vivo
Sjogren's syndrome = details: vitamin C 7.5 g/day for a year; person
Description: Associated with these disorders were brittle, frequently cracking nails and hypersensitivity of the hands to soaps and detergents. […] 50 mg/day pyridoxine (desirable for normal EFA metabolism) and 6×0.6 ml Evening Primrose oil capsules per day were added to the regime.

opiate receptor = details: cited from earlier work
[2] = system: conversion of AA to 2 series PGs (human platelets); assay type: cell-based
Description: (§1) The method is given in detail later herein but briefly human platelets are incubated with radioactive DGLA or arachidonic acid. The PGs produced during incubation are extracted by conventional means and separated by thin layer chromatography, and the amount of radioactivity appearing in each PG or related substance is counted. PGE 1, PGF 1α and thromboxane B1 from DGLA, and PGE 2, PGF 2α and thromboxane B2 from AA are estimated.
(§2) One day expired (2 days old) human platelets were obtained and used within 48 hours of expiration. One unit was centrifuged at 1000 g for 15 minutes and the supernatent drawn off. The platelet pellet was resuspended in Tris-NaCl-EDTA buffer, made up of 0.15 M NaCl, 0.15 M Tris HCl at pH 7.4 and 0.077 M NaEDTA (90:8:2 v/v/v). The platelets were recentrifuged, the supernatant removed and the pellet resuspended in Krebs-Henseleit buffer (without calcium) at pH 7.4. The washed platelets suspension contained about 1-2% red blood cells. All glassware used in the preparation of the platelets was siliconized.
Four equal sized 1 ml aliquots of the platelet suspension, containing 10^9 platelets/ml were incubated with e.g. 0.5 μCi ^14 C-DGLA for five minutes. […]
The chloroform/methanol extract was then reduced in volume to 1 ml under dry prepurified nitrogen. […] Each elution was then evaporated to dryness and counted by liquid scintillation (Beckman 100 LS counter). […]

[3] = system: conversion of DGLA to 1 series PGs (human platelets); assay: tissue or blood; assay type: cell-based; details: for activity at 0.018 µg/mL / activity at 18 µg/mL: Homo sapiens, Platelet; for effect on formation of 1 series PGs from DGLA: human platelets; for behaviour of treated normal platelets (PGE1 from DGLA): normal platelets compared with schizophrenic platelets
Description: as §1, §2
Four equal sized 1 ml aliquots of the platelet suspension, containing 10^9 platelets/ml were incubated with e.g. 0.5 μCi ^14 C-DGLA for five minutes. At the beginning of the incubation the material under test was added to the suspensions. The reaction was stopped after five minutes by addition of 1/10 volume of 10% formic acid. The suspension was then extracted three times with ethyl acetate and the fractions pooled and dried under vacuum. The extract was then taken up with 5 ml chloroform/methanol (2/1, v/v). Recovery of radioactive material in the extract was checked by taking 50 μl of the chloroform/methanol and counting by liquid scintillation.
The chloroform/methanol extract was then reduced in volume to 1 ml under dry prepurified nitrogen. Thin layer chromatography was carried out on 500 μg precoated, prescored silica gel G Uniplates (Analtech). Plates were activated by heating to 100° C. for 1 hour immediately prior to use. The solvent system was chloroform:methanol:acetic acid:water (90:8:1:0:8). Reference compounds (PGsE1 and F1α and thromboxane B1) were run at the same time and visualized by phosphomolybdic acid spray followed by brief heating. The bands on the plates corresponding to the reference PGE1, PFG1α and TXB1 were scraped off and eluted with 20 ml acetone. Each elution was then evaporated to dryness and counted by liquid scintillation (Beckman 100 LS counter).
Three experiments were performed with DGLA and three with AA.

[4] = read-out: PGE1 formation (precursor DGLA), percentage of control counts
[5] = read-out: TXB1 formation (precursor DGLA), percentage of control counts

Question: For CCO [Ethyl alcohol, ethyl alcohol], which “effect on formation of thromboxane B2” value (PG formation; extremely high levels of ethanol, conversion of AA) is on record?
Answer: can block the formation of thromboxane B2

Question: And the “concentration of alcohol in human plasma at which signs of mild intoxication first appear” value ([1]; human plasma)?
Answer: 20-30 mg %

Question: What about the “concentration which produces "blind drunkenness"” value ([1]; in vivo) of the same molecule?
Answer: 300 mg %

Question: For CCCCC/C=C\C/C=C\C/C=C\CCCCC(=O)O [γ-linolenic acid], which “effect on immunological abnormalities of the strain” value (NZB/W mouse) is on record?
Answer: can correct many of the immunological abnormalities of the strain

Question: For CCCCC[C@H](O)/C=C/[C@H]1[C@H](O)CC(=O)[C@@H]1CCCCCCC(=O)O [PGE1], which “effect on immunological abnormalities of the strain” value (NZB/W mouse) is on record?
Answer: can correct many of the immunological abnormalities of the strain

Question: What does the source list for O=C1O[C@H]([C@@H](O)CO)C(O)=C1O [Vitamin C, ascorbic acid]?
Answer: effect on well-being, dry eyes and mouth (Sjogren's syndrome): subjective sense of well-being and some slight improvement in the dry eyes and mouth; effect on PG formation (PG formation; high concentrations of vitamin C, reports in the literature): both enhancing and reducing PG formation

Question: Which “binding to and activation of the opiate receptor” value (from here on “binding to and activation”) (opiate receptor) does the source give for CN1CC[C@]23CCCC[C@H]2[C@H]1Cc1ccc(O)cc13 [l-levorphanol] here?
Answer: binds to and activates the opiate receptor

Question: And the “effect on formation of 2 series PGs from AA” value [2]?
Answer: no effect on production of 2-series PGs from AA; also recorded: without blocking the formation of 2 series PGs from AA

Question: What about the activity at 0.018 µg/mL [3, 4] of the same molecule?
Answer: 23%

Question: And the activity at 18 µg/mL [3, 4]?
Answer: 72%

Question: What about the activity at 0.018 µg/mL [3, 5] of the same molecule?
Answer: 20%

Question: And the activity at 18 µg/mL [3, 5]?
Answer: 76%

Question: What about the “effect on formation of 1 series PGs from DGLA” value (“effect on formation … from DGLA” below) [3] of the same molecule?
Answer: reduced formation of 1-series PGs; also recorded: able to block the formation of 1 series PGs from DGLA

Question: What about the “effect on conversion of DGLA to PGE1” value ([3]; l-levorphanol 100 μg/ml) of the same molecule?
Answer: inhibiting conversion of DGLA to PGE1

Question: What about the “behaviour of treated normal platelets (PGE1 from DGLA)” value [3] of the same molecule?
Answer: behave like schizophrenic platelets

Question: What about the “imitation of schizophrenic defect of conversion of DGLA to PGE1 in normal platelets” value ([3]; normal platelets incubated with l-levorphanol) of the same molecule?
Answer: can be limited in normal platelets by incubation with l-levorphanol

Question: For CN1CC[C@@]23CCCC[C@@H]2[C@@H]1Cc1ccc(O)cc13 [d-levorphanol], which “binding to and activation” value (opiate receptor) is on record?
Answer: does not

Question: What about the “binding to and activation” value (opiate receptor; listed as d-isomer of levorphanol) of the same molecule?
Answer: devoid of opiate activity

Question: What about the “effect on conversion of DGLA to PGE1” value ([3]; d-isomer of levorphanol) of the same molecule?
Answer: no such effect

Question: What about the “effect on formation … from DGLA” value [3] of the same molecule?
Answer: not shown by d-levorphanol

Question: Which “effect on formation … from DGLA” value [3] does the source give for “β-endorphin: natural opioid (YGGFMTSEKSQTPLVTLFKNAIIKNAYKKGE; Beta-endorphin; UniProt P01189 237-267, looked up)” here?
Answer: effect similar to levorphanol

Question: And the “behaviour of treated normal platelets (PGE1 from DGLA)” value [3]?
Answer: behave like schizophrenic platelets
